# Assay results taken from patent US20160046603A1, “Crystalline Forms of D-Glucitol, 1-Deoxy-1-(Methylamino)-, 1-(6-Amino-3,5-Difluoropyridine-2-Yl)-8-Chloro-6-Fluoro-1,4-Dihydro-7-(3-Hydroxyazetidin-1-Yl)-4-Oxo-3-Quinolinecarboxylate” (MELINTA THERAPEUTICS, INC., priority 2013, published 2016).
# Assays:
# [1] = Intrinsic dissolution rate; assay type: physicochemical
# Description: Approximately 100 mg of the pure test compound was compressed under high pressure (7 ton), using a constructed die. No additives were added, thus avoiding any external interference in the intrinsic dissolution profile. The resulting non-disintegrating disc was transferred to the dissolution apparatus, Distek model 5100 premiere dissolution system, containing 900 mL of pH 5 buffer with 15 mM hexadecyl trimethyl ammonium bromide (HTAB), pre-heated to 37° C. The stirring speed of the paddle was set to 50 rpm. The solution was sampled at set time points with the resulting aliquots analyzed directly by HPLC, with reference to standard solutions. 5 standards, with concentrations ranging from 0.03 to 0.005 mg/mL in deionized water, and the sample solutions were injected, together with blank injections of the deionized water. The concentration was calculated using the peak areas determined by integration of the peak found at the same retention time as the principal peak in the standard injection.
# [2] = Solid-state stability / polymorph conversion followed by XRPD; assay type: physicochemical; conditions: for thermodynamic stability: Form 1A versus Form 1B
# Description: X-Ray Powder Diffraction patterns were collected on a Bruker AXS C2 GADDS diffractometer using Cu Kα radiation (40 kV, 40 mA), automated XYZ stage, laser video microscope for auto-sample positioning and a HiStar 2-dimensional area detector. X-ray optics consists of a single Gael multilayer mirror coupled with a pinhole collimator of 0.3 mm. A weekly performance check was carried out using a certified standard NIST 1976 Corundum (flat plate). Similar instruments can be used to obtain XRPD patterns.
# The beam divergence, i.e. the effective size of the X-ray beam on the sample, was approximately 4 mm. A θ-θ continuous scan mode was employed with a sample—detector distance of 20 cm which gives an effective 2θ range of 3.2°-29.7°. The samples were exposed to the X-ray beam for approximately 120 seconds. The software used for data collection was GADDS for WNT 4.1.16 and the data were analyzed and presented using Diffrac Plus EVA v11.0.0.2 or v13.0.0.2.
# Samples run under ambient conditions were prepared as flat plate specimens using powder as received without grinding. Approximately 1-2 mg of the sample was lightly pressed on a glass slide to obtain a flat surface.
# [3] = Phase 2 trials, nearly 1,400 patients; cited from earlier work
# [4] = system: topoisomerase and gyrase; conditions: cited from earlier work
# [5] = system: Gram-negative and Gram-negative bacteria; conditions: cited from earlier work
# [6] = over the parent acid; cited from earlier work
# [7] = Modulated differential scanning calorimetry (mDSC); assay type: physicochemical; conditions: mDSC thermogram, FIG. 4
# Description: DSC data were collected on a TA Instruments Q2000 equipped with a 50 position autosampler. Similar instruments can be used to collect DSC data. The calibration for thermal capacity was carried out using sapphire and the calibration for energy and temperature was carried out using certified indium. Modulated temperature DSC was carried out using an underlying heating rate of 2° C./min and temperature modulation parameters of ±1.2° C. (amplitude) every 60 seconds (period). Typically 0.5-3 mg of each sample, in a pin-holed aluminum pan, was heated at […] from 25° C. to 220° C. A purge of dry nitrogen at 50 ml/min was maintained over the sample. The instrument control software was Advantage for Q Series v2.8.0.392 and Thermal Advantage v4.8.3 and the data were analyzed using Universal Analysis v4.4A.
smiles,measurement,setting,value
"CNC[C@H](O)[C@@H](O)[C@H](O)[C@H](O)CO.Nc1nc(-n2cc(C(=O)O)c(=O)c3cc(F)c(N4CC(O)C4)c(Cl)c32)c(F)cc1F [Form 1A, D-glucitol, 1-deoxy-1-(methylamino)-, 1-(6-amino-3,5-difluoropyridin-2-yl)-8-chloro-6-fluoro-1,4-dihydro-7-(3-hydroxyazetidin-1-yl)-4-oxo-3-quinolinecarboyxlate]",dissolution characteristics,[1]; Form 1A versus Form 1B,improved dissolution characteristics
same,thermodynamic stability,[2],thermodynamic stability over Form 1B
"Nc1nc(-n2cc(C(=O)O)c(=O)c3cc(F)c(N4CC(O)C4)c(Cl)c32)c(F)cc1F [Delafloxacin, 1-deoxy-1-(methylamino)-, 1-(6-amino-3,5-difluoropyridin-2-yl)-8-chloro-6-fluoro-1,4-dihydro-7-(3-hydroxyazetidin-1-yl)-4-oxo-3-quinolinecarboyxlate]",tolerance and safety,[3],good tolerance and safety
same,inhibition of topoisomerase and gyrase enzyme targets,[4],balanced inhibition
same,potency against bacteria,[5],highly potent
"CNC[C@H](O)[C@@H](O)[C@H](O)[C@H](O)CO.Nc1nc(-n2cc(C(=O)O)c(=O)c3cc(F)c(N4CC(O)C4)c(Cl)c32)c(F)cc1F [D-glucitol, 1-deoxy-1-(methylamino)-, 1-(6-amino-3,5-difluoropyridin-2-yl)-8-chloro-6-fluoro-1,4-dihydro-7-(3-hydroxyazetidin-1-yl)-4-oxo-3-quinolinecarboyxlate]","solubility, dissolution and bioavailability",[6],"improved solubility, dissolution and bioavailability"
"CNC[C@H](O)[C@@H](O)[C@H](O)[C@H](O)CO.Nc1nc(-n2cc(C(=O)O)c(=O)c3cc(F)c(N4CC(O)C4)c(Cl)c32)c(F)cc1F [Form 1B, D-glucitol, 1-deoxy-1-(methylamino)-, 1-(6-amino-3,5-difluoropyridin-2-yl)-8-chloro-6-fluoro-1,4-dihydro-7-(3-hydroxyazetidin-1-yl)-4-oxo-3-quinolinecarboyxlate]",non-reversible transition of Form 1B to Form 1A,[7],about 94 °C
same,initial dissolution rate (intrinsic dissolution profile),"[1]; compressed disc, 900 mL pH 5 buffer with 15 mM HTAB, 37° C., 50 rpm, compared with the other phase",significantly faster initial dissolution rates
same,dissociation to the free acid post IDR,[1]; confirmed by 1H NMR analyses post IDR,almost complete dissociation to the free acid
same,thermodynamic stability,[2],metastable
same,conversion of polymorphic form,"[2]; exposure to humidity and heat, followed by XRPD b-axis reflections",converts to crystalline anhydrous Form 1A delafloxacin meglumine on exposure to humidity and heat
